Measurements as given in the supplement of paper PMC11208160.

Assay: recombinant UMI read abundance after kanamycin selection (control-corrected) (log10(CPM+1)); higher = more efficient recombination; extreme values may be limits of the assay; sequences stand for … in AGTGCAGAGAAAATCGGCCAGTTTTCTCTGCCTGCAGTCCGCATGCCGTGGGACCCCTTGGGTTCTAACCTGTTGCCTAGATTTATGCAGCGGACTGCCTTTCTCCCAAAGTGATAAACCGG…AGGTTGGTTTCACT; site = the 11-nt donor
Outline: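 Two replicates each of selected and unselected plating were used in this pooled Escherichia coli screen of donor and donor-binding-loop pairs for the IS621 bridge recombinase. Selection was with IPTG (0.07 mM) and kanamycin. Counts of recombinant UMIs, amplified across the donor–target junction, were converted to CPM, averaged, scaled by control-derived factors and reported as log10(CPM+1).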
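Note: IS621 bridge recombinase in Escherichia coli cells against a fixed T5 target plasmid.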

Row | Sequence | recombinant UMI read abundance (log10)
1 | ACTAGTGCATGGACCGGTTTTCCCGGTAATCCGTATTTGCC (site ACTAGTGCTGG) | 1.93
2 | TGGAATACATGGACCGGTTTTCCCGGTAATCCGTATTTGCA (site TGGAATACTTG) | 1.86
3 | ATCTATACATGGACCGGTTTTCCCGGTAATCCGTATTTGTC (site ATCTATACTGC) | 0
4 | TAAATACCATGGACCGGTTTTCCCGGTAATCCGTATTTGCG (site TAAATACCTCG) | 0
5 | TGCTAAGCATGGACCGGTTTTCCCGGTAATCCGTATTTGGT (site TGCTAAGCTAC) | 0.906
6 | AATGACCCATGGACCGGTTTTCCCGGTAATCCGTATTTGTT (site AATGACCCTAA) | 0.0112
7 | TTAGCTGCATGGACCGGTTTTCCCGGTAATCCGTATTTGAG (site TTAGCTGCTCT) | 0.839
8 | GTTCGAGCATGGACCGGTTTTCCCGGTAATCCGTATTTGAT (site GTTCGAGCTAT) | 1.75
9 | TAGTTGGCATGGACCGGTTTTCCCGGTAATCCGTATTTGTG (site TAGTTGGCTCA) | 0.476
10 | TGTCTACCATGGACCGGTTTTCCCGGTAATCCGTATTTGCG (site TGTCTACCTCG) | 0.0129
11 | GCCAGGCCATGGACCGGTTTTCCCGGTAATCCGTATTTGAA (site GCCAGGCCTTT) | 0.0165
12 | CGAGGCCCATGGACCGGTTTTCCCGGTAATCCGTATTTGGG (site CGAGGTCCTCC) | 0.00542
13 | CGAAATCCATGGACCGGTTTTCCCGGTAATCCGTATTTGCT (site CGAAATCCTAG) | 0.783
14 | CCTACTACATGGACCGGTTTTCCCGGTAATCCGTATTTGGC (site CCTATTACTGC) | 0
15 | CCGTTGGCATGGACCGGTTTTCCCGGTAATCCGTATTTGTG (site CCGTTGGCTCA) | 0.286
16 | CGTATGTCATGGACCGGTTTTCCCGGTAATCCGTATTTGGT (site CGTATGTCTAC) | 1.59
17 | CGTCTAGCATGGACCGGTTTTCCCGGTAATCCGTATTTGGC (site CGTCTAGCTGC) | 2.07
18 | TCATACTCATGGACCGGTTTTCCCGGTAATCCGTATTTGCA (site TCATTCTCTTG) | 0
19 | AAGCACGCATGGACCGGTTTTCCCGGTAATCCGTATTTGGG (site AAGCACGCTCT) | 0.265
20 | GTTGAGGCATGGACCGGTTTTCCCGGTAATCCGTATTTGTG (site GTGGAGGCTCA) | 0.355
21 | GTCGGCCCATGGACCGGTTTTCCCGGTAATCCGTATTTGTG (site GTCGGCCCTCA) | 0.00361
22 | AGAGCATCATGGACCGGTTTTCCCGGTAATCCGTATTTGCT (site AGAGCATCTAG) | 2.16
23 | CCATCAGCATGGACCGGTTTTCCCGGTAATCCGTATTTGCT (site CCATCAGCTAG) | 0.375
24 | TAGCGTTCATGGACCGGTTTTCCCGGTAATCCGTATTTGGT (site TAGCATTCTAC) | 0.538
25 | ATCGGGACATGGACCGGTTTTCCCGGTAATCCGTATTTGTG (site ATCGGGACTCA) | 0.972

Row | Sequence | recombinant UMI read abundance (log10)
26 | AAGCACGCATGGACCGGTTTTCCCGGTAATCCGTATTTGGA (site AAGCACGCTTC) | 0.817
27 | TGTTCCCCATGGACCGGTTTTCCCGGTAATCCGTATTTGTA (site TGTTGCCCTTA) | 0.0058
28 | CACTCCCCATGGACCGGTTTTCCCGGTAATCCGTATTTGCC (site CACTCCGCTGG) | 0
29 | GAAGTCACATGGACCGGTTTTCCCGGTAATCCGTATTTGGG (site AAAGTCACTCC) | 0.11
30 | TAGTTTCCATGGACCGGTTTTCCCGGTAATCCGTATTTGAA (site TAGTTTCCTTT) | 0.228
31 | TAGCCTTCATGGACCGGTTTTCCCGGTAATCCGTATTTGGT (site TAGCCTGCTAC) | 0.0178
32 | GTACTAACATGGACCGGTTTTCCCGGTAATCCGTATTTGGA (site GTACTAACTTC) | 1.29
33 | CGGAGGACATGGACCGGTTTTCCCGGTAATCCGTATTTGCA (site AGGAAGACTTG) | 0
34 | AGAGATGCATGGACCGGTTTTCCCGGTAATCCGTATTTGGG (site AGAGATGCTCC) | 1.2
35 | CCAAATACATGGACCGGTTTTCCCGGTAATCCGTATTTGGC (site CCCAATACTGC) | 0
36 | CAAGTCTCATGGACCGGTTTTCCCGGTAATCCGTATTTGGG (site CAAGTCCCTCC) | 0.019
37 | GCGAAAACATGGACCGGTTTTCCCGGTAATCCGTATTTGGT (site GCGAAAACTAA) | 0.0141
38 | AGGTAGCCATGGACCGGTTTTCCCGGTAATCCGTATTTGCA (site AGGAAGACTTG) | 0
39 | TAGCCTTCATGGACCGGTTTTCCCGGTAATCCGTATTTGGT (site TAGCATTCTAC) | 0.0053
40 | CACTTGGCATGGACCGGTTTTCCCGGTAATCCGTATTTGCA (site CACTTGGCTTA) | 0.00954
41 | CGCAATCCATGGACCGGTTTTCCCGGTAATCCGTATTTGAG (site CGCAATCCTCT) | 0.964
42 | AGCCCAGCATGGACCGGTTTTCCCGGTAATCCGTATTTGGG (site AGCGCAGCTCC) | 0.0133
43 | ATGGTATCATGGACCGGTTTTCCCGGTAATCCGTATTTGAC (site CTAGTATCTGT) | 2.1
44 | TAATGAACATGGACCGGTTTTCCCGGTAATCCGTATTTGGG (site TAATGAGCTCC) | 0.0277
45 | TAAAGTCCATGGACCGGTTTTCCCGGTAATCCGTATTTGTT (site TAAAGTCCTGA) | 0
46 | GTTGAGGCATGGACCGGTTTTCCCGGTAATCCGTATTTGTG (site GTAGAGGCTCA) | 1.5
47 | CCCTAGCCATGGACCGGTTTTCCCGGTAATCCGTATTTGCG (site CCCTAGCCTTG) | 0
48 | TACGGTACATGGACCGGTTTTCCCGGTAATCCGTATTTGTG (site TACGGTACTCA) | 0.582
49 | GATAAGGCATGGACCGGTTTTCCCGGTAATCCGTATTTGGC (site GATAAGGCTGC) | 1.3
50 | AATGTCTCATGGACCGGTTTTCCCGGTAATCCGTATTTGAC (site AATGTCTCTGT) | 2.21

Row | Sequence | recombinant UMI read abundance (log10)
51 | ACCTATACATGGACCGGTTTTCCCGGTAATCCGTATTTGAC (site AGCTATACTGT) | 0.0116
52 | CCGTTCGCATGGACCGGTTTTCCCGGTAATCCGTATTTGTG (site CCGTTAGCTCA) | 0.00765
53 | AGGTTCCCATGGACCGGTTTTCCCGGTAATCCGTATTTGGG (site AGGTTCCCTCC) | 0.0153
54 | CCAGTATCATGGACCGGTTTTCCCGGTAATCCGTATTTGAC (site CGAGTATCTGT) | 0
55 | AGCCTAGCATGGACCGGTTTTCCCGGTAATCCGTATTTGTC (site AGCCTAGCTCA) | 0.0312
56 | TGCCTTTCATGGACCGGTTTTCCCGGTAATCCGTATTTGAC (site GGCCTTTCTGT) | 0
57 | ATGTTTGCATGGACCGGTTTTCCCGGTAATCCGTATTTGCT (site ATGTTTGCTAG) | 1.94
58 | TAGCCAGCATGGACCGGTTTTCCCGGTAATCCGTATTTGAA (site TAGCGAGCTTT) | 0.0055
59 | CACCTGGCATGGACCGGTTTTCCCGGTAATCCGTATTTGGA (site CACATGGCTTC) | 0.0162
60 | CCCTAGCCATGGACCGGTTTTCCCGGTAATCCGTATTTGAC (site CCCTAGCCTGC) | 0
61 | ACTCGAACATGGACCGGTTTTCCCGGTAATCCGTATTTGTC (site ACCCGAACTGA) | 1.84
62 | TCCAATTCATGGACCGGTTTTCCCGGTAATCCGTATTTGCC (site TCCAGTTCTGG) | 0
63 | GTATGCACATGGACCGGTTTTCCCGGTAATCCGTATTTGTA (site GTATACACTTA) | 2.07
64 | GCGAACACATGGACCGGTTTTCCCGGTAATCCGTATTTGCT (site GCGAATACTAG) | 0.025
65 | GGTTAGACATGGACCGGTTTTCCCGGTAATCCGTATTTGCC (site GGCTAGACTGG) | 1.32
66 | CCTAAAGCATGGACCGGTTTTCCCGGTAATCCGTATTTGAA (site CCTAAAGCTCT) | 0.00343
67 | AATGTGGCATGGACCGGTTTTCCCGGTAATCCGTATTTGAC (site AATGTGCCTGT) | 0.00397
68 | CGAATATCATGGACCGGTTTTCCCGGTAATCCGTATTTGCG (site CGAATATCTCG) | 2.99
69 | AGAAAGGCATGGACCGGTTTTCCCGGTAATCCGTATTTGCT (site AGAAAGGCTAG) | 2.58
70 | CCAGCATCATGGACCGGTTTTCCCGGTAATCCGTATTTGAC (site CTAGTATCTGT) | 0
71 | AGAAAGGCATGGACCGGTTTTCCCGGTAATCCGTATTTGCT (site AGAAAGACTAG) | 0
72 | CCTACTTCATGGACCGGTTTTCCCGGTAATCCGTATTTGAT (site CCTACTTCTAT) | 0
73 | CGAGGACCATGGACCGGTTTTCCCGGTAATCCGTATTTGGC (site CGAGGACCTTC) | 0.013
74 | CAATGCCCATGGACCGGTTTTCCCGGTAATCCGTATTTGAA (site CAATGCACTTT) | 0.00911
75 | TTCTTCACATGGACCGGTTTTCCCGGTAATCCGTATTTGTC (site TTCTTCACTGA) | 0
